Data: PubChem BioAssay (NCI)
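Protocol summary: plate cells (96-well), add compound at 5 concentrations, incubate 48 h, interpolate endpoints linearly. The concentration for full growth arrest is given as TGI.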

Legend:
Assay in all cases: NCI-60 cell line screen, 48 h
TK-10 renal = system: TK-10 renal
UACC-257 melanoma = system: UACC-257 melanoma
SN12C renal = system: SN12C renal
SK-OV-3 ovarian = system: SK-OV-3 ovarian
A549 NSCLC = system: A549 NSCLC
RXF 393 renal = system: RXF 393 renal
SF-295 CNS = system: SF-295 CNS
LOX IMVI melanoma = system: LOX IMVI melanoma
HOP-62 NSCLC = system: HOP-62 NSCLC
MOLT-4 leukemia = system: MOLT-4 leukemia
MDA-MB-231 breast = system: MDA-MB-231 breast
OVCAR-5 ovarian = system: OVCAR-5 ovarian
HCT-116 colon = system: HCT-116 colon
SK-MEL-28 melanoma = system: SK-MEL-28 melanoma
RPMI-8226 leukemia = system: RPMI-8226 leukemia
NCI-H522 lung = system: NCI-H522 lung
SF-268 CNS = system: SF-268 CNS
BT-549 breast = system: BT-549 breast
DU-145 prostate = system: DU-145 prostate
UO-31 renal = system: UO-31 renal
T-47D breast = system: T-47D breast
SW-620 colon = system: SW-620 colon
SK-MEL-2 melanoma = system: SK-MEL-2 melanoma
COLO 205 colon = system: COLO 205 colon
MCF7 breast = system: MCF7 breast
UACC-62 melanoma = system: UACC-62 melanoma
OVCAR-4 ovarian = system: OVCAR-4 ovarian
SNB-75 CNS = system: SNB-75 CNS
IGROV1 ovarian = system: IGROV1 ovarian
M14 melanoma = system: M14 melanoma
MDA-MB-435 = system: MDA-MB-435
OVCAR-3 ovarian = system: OVCAR-3 ovarian
OVCAR-8 ovarian = system: OVCAR-8 ovarian
786-0 renal = system: 786-0 renal
NCI-H23 lung = system: NCI-H23 lung
SF-539 CNS = system: SF-539 CNS
ACHN renal = system: ACHN renal
HCT-15 colon = system: HCT-15 colon
HS 578T breast = system: HS 578T breast
K-562 leukemia = system: K-562 leukemia
CCRF-CEM leukemia = system: CCRF-CEM leukemia
PC-3 prostate = system: PC-3 prostate
NCI-H226 lung = system: NCI-H226 lung
HCC-2998 colon = system: HCC-2998 colon
U251 CNS = system: U251 CNS
KM12 colon = system: KM12 colon
SK-MEL-5 melanoma = system: SK-MEL-5 melanoma
CAKI-1 renal = system: CAKI-1 renal
HT29 colon = system: HT29 colon
MALME-3M melanoma = system: MALME-3M melanoma
SNB-19 CNS = system: SNB-19 CNS
EKVX NSCLC = system: EKVX NSCLC

SMILES: CC(C)(C)c1cc(C(=O)Nc2cc(Br)c(Br)cc2S(N)(=O)=O)cc(C(C)(C)C)c1O
- TGI (TK-10 renal): 25.5 µM
- TGI (UACC-257 melanoma): 33.1 µM
- TGI (SN12C renal): 21.2 µM
- TGI (SK-OV-3 ovarian): 31.3 µM
- TGI (A549 NSCLC): 21.3 µM
- TGI (RXF 393 renal): 23.1 µM
- TGI (SF-295 CNS): 27.7 µM
- TGI (LOX IMVI melanoma): 19.4 µM
- TGI (HOP-62 NSCLC): 35.3 µM
- TGI (MOLT-4 leukemia): 18.8 µM
- TGI (MDA-MB-231 breast): 26.4 µM
- TGI (OVCAR-5 ovarian): 24.9 µM
- TGI (HCT-116 colon): 20.5 µM
- TGI (SK-MEL-28 melanoma): 26.2 µM
- TGI (RPMI-8226 leukemia): > 100 µM
- TGI (NCI-H522 lung): 24.3 µM
- TGI (SF-268 CNS): 29 µM
- TGI (BT-549 breast): 25.4 µM
- TGI (DU-145 prostate): 29.2 µM
- TGI (UO-31 renal): 24.7 µM
- TGI (T-47D breast): 15.6 µM
- TGI (SW-620 colon): 21.4 µM
- TGI (SK-MEL-2 melanoma): 22.7 µM
- TGI (COLO 205 colon): 19.1 µM
- TGI (MCF7 breast): 18.8 µM
- TGI (UACC-62 melanoma): 23.1 µM
- TGI (OVCAR-4 ovarian): 28.7 µM
- TGI (SNB-75 CNS): 21.5 µM
- TGI (IGROV1 ovarian): 26.6 µM
- TGI (M14 melanoma): 35.9 µM
- TGI (MDA-MB-435): 24.7 µM
- TGI (OVCAR-3 ovarian): 21.1 µM
- TGI (OVCAR-8 ovarian): 26.6 µM
- TGI (786-0 renal): 23 µM
- TGI (NCI-H23 lung): 40 µM
- TGI (SF-539 CNS): 32.7 µM
- TGI (ACHN renal): 23.4 µM
- TGI (HCT-15 colon): 16.8 µM
- TGI (HS 578T breast): 30.5 µM
- TGI (K-562 leukemia): 25.7 µM
- TGI (CCRF-CEM leukemia): 26.6 µM
- TGI (PC-3 prostate): 22.9 µM
- TGI (NCI-H226 lung): 29.3 µM
- TGI (HCC-2998 colon): 18.1 µM
- TGI (U251 CNS): 26.6 µM
- TGI (KM12 colon): 36.4 µM
- TGI (SK-MEL-5 melanoma): 25 µM
- TGI (CAKI-1 renal): 22.8 µM
- TGI (HT29 colon): 16.2 µM
- TGI (MALME-3M melanoma): 26.6 µM
- TGI (SNB-19 CNS): 31.1 µM
- TGI (EKVX NSCLC): 26.2 µM
